Measured values reported in ChEMBL document CHEMBL1909046, “DrugMatrix in vitro pharmacology data”.

Key:
[1] = target: Vascular endothelial growth factor receptor 1 (Homo sapiens, UniProt P17948); format: cell-based; details: huvec; further: in other assays of this panel Not Active means under 50% inhibition at 10 µM
[2] = target: T1, 3-hydroxy-3-methylglutaryl-coenzyme A reductase (Homo sapiens, UniProt P04035); set-up: species or system Escherichia coli;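 further: enzyme inhibition assay of HMG-CoA reductase using radiolabeled [14C]HMG-CoA as substrate; in other assays of this panel Not Active means under 50% inhibition at 10 µM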
T1 sequence (P04035 whole entry): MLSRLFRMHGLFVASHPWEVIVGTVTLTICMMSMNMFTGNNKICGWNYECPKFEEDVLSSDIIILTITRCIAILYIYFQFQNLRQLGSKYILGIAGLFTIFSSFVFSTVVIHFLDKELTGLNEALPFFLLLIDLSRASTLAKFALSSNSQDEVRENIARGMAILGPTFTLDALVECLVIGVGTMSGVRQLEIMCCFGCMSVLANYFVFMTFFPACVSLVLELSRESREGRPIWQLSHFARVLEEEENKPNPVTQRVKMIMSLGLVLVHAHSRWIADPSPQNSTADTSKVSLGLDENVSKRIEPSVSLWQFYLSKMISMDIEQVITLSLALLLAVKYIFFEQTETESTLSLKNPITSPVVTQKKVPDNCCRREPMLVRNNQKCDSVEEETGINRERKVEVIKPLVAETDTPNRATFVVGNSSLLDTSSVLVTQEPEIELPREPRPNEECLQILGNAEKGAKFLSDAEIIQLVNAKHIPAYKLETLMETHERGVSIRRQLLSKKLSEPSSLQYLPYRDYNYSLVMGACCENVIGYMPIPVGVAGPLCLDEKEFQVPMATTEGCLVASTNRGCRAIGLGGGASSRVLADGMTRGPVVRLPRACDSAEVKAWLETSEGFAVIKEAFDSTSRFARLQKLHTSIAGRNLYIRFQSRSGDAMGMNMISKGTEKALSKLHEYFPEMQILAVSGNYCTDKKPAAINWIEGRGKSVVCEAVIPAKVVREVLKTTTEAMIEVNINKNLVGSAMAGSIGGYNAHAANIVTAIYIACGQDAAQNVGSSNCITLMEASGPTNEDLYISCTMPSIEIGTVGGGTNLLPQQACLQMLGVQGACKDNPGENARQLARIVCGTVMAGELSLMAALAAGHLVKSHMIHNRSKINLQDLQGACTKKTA

[3] = target: T2, Neutrophil elastase (Homo sapiens, UniProt P08246); format: tissue-based;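 further: inhibition of neutrophil elastase enzyme activity, measured with a p-nitroanilide-linked peptide substrate; in other assays of this panel Not Active means under 50% inhibition at 10 µM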
T2 sequence (P08246 whole entry): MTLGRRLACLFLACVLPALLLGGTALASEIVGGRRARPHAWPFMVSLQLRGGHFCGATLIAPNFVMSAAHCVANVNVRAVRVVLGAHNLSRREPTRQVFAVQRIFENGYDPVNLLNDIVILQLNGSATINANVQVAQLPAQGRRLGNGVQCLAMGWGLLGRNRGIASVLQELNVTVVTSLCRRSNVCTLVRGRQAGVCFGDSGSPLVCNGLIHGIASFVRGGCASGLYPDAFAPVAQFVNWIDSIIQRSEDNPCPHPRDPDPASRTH

[4] = target: Epidermal growth factor receptor (Homo sapiens, UniProt P00533); test: DRUGMATRIX: Protein Tyrosine Kinase, EGF Receptor enzyme inhibition (substrate: Poly(Glu:Tyr)); format: cell-based, Insect cells; details: insect cells; Not Active = under 50% inhibition at 10 µM
[5] = target: T3, Cholecystokinin receptor type A (Homo sapiens, UniProt P32238); format: cell membranes, Membrane; details: 1321-n1; further: in other assays of this panel Not Active means under 50% inhibition at 10 µM
T3 sequence (P32238 whole entry): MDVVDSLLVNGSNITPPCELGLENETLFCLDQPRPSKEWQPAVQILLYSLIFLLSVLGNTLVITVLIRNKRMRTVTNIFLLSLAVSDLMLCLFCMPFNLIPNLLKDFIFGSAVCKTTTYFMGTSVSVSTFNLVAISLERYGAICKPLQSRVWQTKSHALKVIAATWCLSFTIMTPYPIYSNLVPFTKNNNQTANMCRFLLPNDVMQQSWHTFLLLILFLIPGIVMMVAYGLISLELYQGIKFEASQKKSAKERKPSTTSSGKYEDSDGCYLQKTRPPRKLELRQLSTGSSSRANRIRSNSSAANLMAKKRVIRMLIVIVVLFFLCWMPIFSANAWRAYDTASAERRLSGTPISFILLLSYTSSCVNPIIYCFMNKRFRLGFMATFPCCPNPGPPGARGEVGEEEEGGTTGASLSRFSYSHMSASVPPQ

[6] = target: Cytochrome P450 2C19 (Homo sapiens, UniProt P33261); details: bti-tn-5b1-4; further: in other assays of this panel Not Active means under 50% inhibition at 10 µM
[7] = DRUGMATRIX: Potassium Channel [KATP] radioligand binding (ligand: [3H] Glyburide); format: cell membranes, Membrane; details: hit-t15; Not Active = under 50% inhibition at 10 µM
[8] = target: T4, Progesterone receptor (Bos taurus, UniProt Q690N0); test: DRUGMATRIX: Progesterone radioligand binding (ligand: [3H] R-5020); format: tissue-based, Uterus; details: Not Active = under 50% inhibition at 10 µM
T4 sequence (Q690N0 whole entry): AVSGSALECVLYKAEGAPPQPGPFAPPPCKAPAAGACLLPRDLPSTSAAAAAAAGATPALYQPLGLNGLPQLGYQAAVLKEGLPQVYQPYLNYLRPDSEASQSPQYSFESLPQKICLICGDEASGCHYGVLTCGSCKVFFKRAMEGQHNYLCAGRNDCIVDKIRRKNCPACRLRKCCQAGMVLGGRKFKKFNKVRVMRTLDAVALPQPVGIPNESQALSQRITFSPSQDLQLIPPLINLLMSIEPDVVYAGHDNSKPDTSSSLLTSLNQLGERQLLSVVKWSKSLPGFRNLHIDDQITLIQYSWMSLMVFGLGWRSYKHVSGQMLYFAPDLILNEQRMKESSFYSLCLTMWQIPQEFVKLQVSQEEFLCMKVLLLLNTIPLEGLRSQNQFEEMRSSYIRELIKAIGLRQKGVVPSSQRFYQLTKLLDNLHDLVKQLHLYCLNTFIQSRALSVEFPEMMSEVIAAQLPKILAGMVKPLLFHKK

[9] = target: Sigma non-opioid intracellular receptor 1 (Homo sapiens, UniProt Q99720); test: DRUGMATRIX: Sigma1 radioligand binding (ligand: [3H] Haloperidol); format: cell membranes, Jurkat, Membrane; details: jurkat; Not Active = under 50% inhibition at 10 µM
Sigma non-opioid intracellular receptor 1, sequence (Q99720 whole entry): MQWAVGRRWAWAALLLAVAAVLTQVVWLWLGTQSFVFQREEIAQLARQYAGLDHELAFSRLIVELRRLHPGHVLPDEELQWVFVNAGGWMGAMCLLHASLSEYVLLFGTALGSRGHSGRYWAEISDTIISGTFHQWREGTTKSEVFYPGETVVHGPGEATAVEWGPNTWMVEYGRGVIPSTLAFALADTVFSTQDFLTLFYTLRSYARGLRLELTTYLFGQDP

Cytochrome P450 2C19, sequence (P33261 whole entry): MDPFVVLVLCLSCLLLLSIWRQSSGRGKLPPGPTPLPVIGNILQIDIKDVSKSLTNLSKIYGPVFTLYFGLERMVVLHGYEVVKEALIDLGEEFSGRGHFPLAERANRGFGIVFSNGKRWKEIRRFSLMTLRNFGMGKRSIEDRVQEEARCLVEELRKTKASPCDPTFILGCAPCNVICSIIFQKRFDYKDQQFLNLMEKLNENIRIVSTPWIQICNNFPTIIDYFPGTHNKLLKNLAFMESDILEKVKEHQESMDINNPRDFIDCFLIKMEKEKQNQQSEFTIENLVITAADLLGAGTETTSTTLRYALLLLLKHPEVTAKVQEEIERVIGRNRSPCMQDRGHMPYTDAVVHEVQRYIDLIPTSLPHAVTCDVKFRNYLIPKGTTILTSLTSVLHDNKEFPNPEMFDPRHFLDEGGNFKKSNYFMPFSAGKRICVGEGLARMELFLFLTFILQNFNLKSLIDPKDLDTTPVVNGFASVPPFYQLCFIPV
Epidermal growth factor receptor, sequence (P00533 whole entry): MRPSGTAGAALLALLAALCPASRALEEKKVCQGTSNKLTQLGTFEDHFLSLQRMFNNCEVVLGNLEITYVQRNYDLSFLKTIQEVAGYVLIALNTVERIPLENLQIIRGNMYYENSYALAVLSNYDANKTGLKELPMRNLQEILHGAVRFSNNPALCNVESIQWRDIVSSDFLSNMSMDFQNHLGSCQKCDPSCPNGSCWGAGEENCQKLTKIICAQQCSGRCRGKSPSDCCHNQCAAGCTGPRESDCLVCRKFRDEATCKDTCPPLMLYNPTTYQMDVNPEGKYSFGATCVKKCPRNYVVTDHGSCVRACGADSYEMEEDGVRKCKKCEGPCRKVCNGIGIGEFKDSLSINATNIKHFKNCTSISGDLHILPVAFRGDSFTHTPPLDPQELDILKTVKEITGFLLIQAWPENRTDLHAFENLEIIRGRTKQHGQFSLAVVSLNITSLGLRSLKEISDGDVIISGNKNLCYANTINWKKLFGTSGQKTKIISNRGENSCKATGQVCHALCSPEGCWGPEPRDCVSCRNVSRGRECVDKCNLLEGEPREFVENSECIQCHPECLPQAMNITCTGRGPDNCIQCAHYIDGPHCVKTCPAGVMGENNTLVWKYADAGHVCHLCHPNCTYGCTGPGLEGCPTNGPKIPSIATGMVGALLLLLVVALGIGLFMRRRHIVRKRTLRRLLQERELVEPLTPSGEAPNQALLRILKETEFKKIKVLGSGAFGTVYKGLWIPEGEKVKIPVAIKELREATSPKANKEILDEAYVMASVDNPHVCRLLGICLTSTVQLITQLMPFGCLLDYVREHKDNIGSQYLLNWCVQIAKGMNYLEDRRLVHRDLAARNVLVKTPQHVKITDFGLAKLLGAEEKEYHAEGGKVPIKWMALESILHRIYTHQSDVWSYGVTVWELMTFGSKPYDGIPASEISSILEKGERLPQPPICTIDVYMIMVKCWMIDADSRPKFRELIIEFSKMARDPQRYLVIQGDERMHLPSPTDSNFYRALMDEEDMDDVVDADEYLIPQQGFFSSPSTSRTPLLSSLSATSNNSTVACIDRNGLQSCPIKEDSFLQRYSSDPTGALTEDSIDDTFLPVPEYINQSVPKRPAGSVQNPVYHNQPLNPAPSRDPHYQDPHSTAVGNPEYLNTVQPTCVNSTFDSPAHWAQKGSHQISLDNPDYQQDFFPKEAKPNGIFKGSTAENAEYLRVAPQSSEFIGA
Vascular endothelial growth factor receptor 1, sequence (P17948 whole entry): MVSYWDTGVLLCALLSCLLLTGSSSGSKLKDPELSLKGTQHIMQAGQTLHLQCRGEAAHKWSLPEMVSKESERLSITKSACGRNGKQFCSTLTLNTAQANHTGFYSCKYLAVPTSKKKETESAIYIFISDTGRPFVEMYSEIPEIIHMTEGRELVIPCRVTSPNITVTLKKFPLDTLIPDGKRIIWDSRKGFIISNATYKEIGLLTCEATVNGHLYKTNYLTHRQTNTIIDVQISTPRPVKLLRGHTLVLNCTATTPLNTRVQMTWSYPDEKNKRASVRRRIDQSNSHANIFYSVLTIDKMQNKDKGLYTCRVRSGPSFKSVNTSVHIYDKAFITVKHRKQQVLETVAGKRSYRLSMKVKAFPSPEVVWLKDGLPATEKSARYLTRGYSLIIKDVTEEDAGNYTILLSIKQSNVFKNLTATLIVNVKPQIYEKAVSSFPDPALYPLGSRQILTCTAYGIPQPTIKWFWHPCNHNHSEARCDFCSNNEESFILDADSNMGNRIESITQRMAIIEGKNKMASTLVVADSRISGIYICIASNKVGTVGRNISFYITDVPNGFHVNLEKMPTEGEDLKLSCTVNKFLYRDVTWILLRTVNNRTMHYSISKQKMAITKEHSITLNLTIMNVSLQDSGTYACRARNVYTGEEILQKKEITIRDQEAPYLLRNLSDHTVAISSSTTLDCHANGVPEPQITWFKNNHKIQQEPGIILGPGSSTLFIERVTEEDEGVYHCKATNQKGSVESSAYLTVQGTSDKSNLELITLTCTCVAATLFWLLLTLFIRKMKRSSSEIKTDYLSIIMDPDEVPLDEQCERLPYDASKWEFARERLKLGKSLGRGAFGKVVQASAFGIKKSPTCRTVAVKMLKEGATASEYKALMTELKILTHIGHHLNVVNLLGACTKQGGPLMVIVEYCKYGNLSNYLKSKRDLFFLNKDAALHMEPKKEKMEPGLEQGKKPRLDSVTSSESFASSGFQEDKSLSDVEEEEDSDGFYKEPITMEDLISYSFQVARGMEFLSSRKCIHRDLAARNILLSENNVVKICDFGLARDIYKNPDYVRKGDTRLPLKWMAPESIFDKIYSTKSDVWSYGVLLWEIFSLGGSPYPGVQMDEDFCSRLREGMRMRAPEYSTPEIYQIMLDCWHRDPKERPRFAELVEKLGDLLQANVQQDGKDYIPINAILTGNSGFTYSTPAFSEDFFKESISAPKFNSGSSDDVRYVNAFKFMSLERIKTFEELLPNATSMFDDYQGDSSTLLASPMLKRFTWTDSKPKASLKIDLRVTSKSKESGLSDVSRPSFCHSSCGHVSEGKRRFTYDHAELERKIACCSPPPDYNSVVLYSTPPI

COc1ccc2cc(CC(=O)O)ccc2c1
Not Active: IC50 [1] | IC50 [2] | IC50 [3] | IC50 [4] | IC50 [5] | IC50 [6] | Ki [6] | IC50 [7] | Ki [7] | IC50 [8] | IC50 [9]

c1ccc2c(c1)cc1ccc3cccc4ccc2c1c34
Not Active: IC50 [1] | IC50 [2] | IC50 [3] | IC50 [4] | IC50 [5] | IC50 [6] | Ki [6] | IC50 [7] | Ki [7] | IC50 [8] | IC50 [9]

CC=CC(=O)N(CC)c1ccccc1C
Not Active: IC50 [1] | IC50 [2] | IC50 [3] | IC50 [4] | IC50 [5] | IC50 [6] | Ki [6] | IC50 [7] | Ki [7] | IC50 [8] | IC50 [9]

C=C1C(=O)O[C@@H]2C3O[C@]3(C)CC/C=C(\C)CC[C@@H]12 (stereo partly drawn)
Not Active: IC50 [1] | IC50 [2] | IC50 [3] | IC50 [4] | IC50 [5] | IC50 [6] | Ki [6] | IC50 [7] | Ki [7] | IC50 [8] | IC50 [9]

CC(/C=C1\SC(=S)N(CC(=O)O)C1=O)=C\c1ccccc1
Not Active: IC50 [1] | IC50 [2] | IC50 [3] | IC50 [4] | IC50 [5] | IC50 [6] | Ki [6] | IC50 [7] | Ki [7] | IC50 [8] | IC50 [9]

CC1(C)S[C@@H]2[C@H](NC(=O)[C@H](N)c3ccc(O)cc3)C(=O)N2[C@H]1C(=O)O [AMOXICILLIN]
Not Active: IC50 [1] | IC50 [2] | IC50 [3] | IC50 [4] | IC50 [5] | IC50 [6] | Ki [6] | IC50 [8] | IC50 [9]

O=C1OC2(c3ccc(O)cc3Oc3cc(O)ccc32)c2ccccc21 [FLUORESCEIN]
Not Active: IC50 [1] | IC50 [2] | IC50 [3] | IC50 [4] | IC50 [5] | IC50 [7] | Ki [7] | IC50 [8] | IC50 [9]

O=C1OCCN1/N=C/c1ccc([N+](=O)[O-])o1 [FURAZOLIDONE]
Not Active: IC50 [1] | IC50 [2] | IC50 [3] | IC50 [4] | IC50 [5] | IC50 [7] | Ki [7] | IC50 [8] | IC50 [9]

NCC(=O)O [GLYCINE]
Not Active: IC50 [1] | IC50 [2] | IC50 [3] | IC50 [4] | IC50 [5] | IC50 [7] | Ki [7] | IC50 [8] | IC50 [9]

O=P1(NCCCl)OCCCN1CCCl (stereo not drawn) [IFOSFAMIDE]
Not Active: IC50 [1] | IC50 [2] | IC50 [3] | IC50 [4] | IC50 [5] | IC50 [7] | Ki [7] | IC50 [8] | IC50 [9]

CNCCC=C1c2ccccc2CCc2ccccc21 [NORTRIPTYLINE]
Not Active: IC50 [1] | IC50 [2] | IC50 [3] | IC50 [4] | IC50 [5] | IC50 [7] | Ki [7] | IC50 [8] | IC50 [9]

C=C(C)[C@@H]1[C@H]2OC(=O)[C@@H]1[C@]1(O)C[C@H]3O[C@]34C(=O)O[C@H]2[C@]14C [PICROTOXININ]
Not Active: IC50 [1] | IC50 [2] | IC50 [3] | IC50 [4] | IC50 [5] | IC50 [7] | Ki [7] | IC50 [8] | IC50 [9]
